The values below are quoted from earlier work in patent US20020045179A1, “Toxicity typing using mesenchymal stem cells” (priority 2000, published 2002).

Molecules are shown by their SMILES. Where two headings read alike, the source gives them in different places.

The conditions of series [1]: for liver toxicity (in words): predetermined toxicity stated in text of Example 2.
The conditions of series [2]: in vivo.
The conditions of series [3]: in vivo. The source holds these as a separate data set.
For series [4] the following is noted: in vivo. This is another data set of the same source.
Where [5] appears, read: Table 1, predetermined toxicity by tissue/organ.

As to `CC(=O)Nc1ccc(O)cc1` [acetominophen], the “TOXICITIES LIVER” value in series [1] (in vivo) is “+”. For the compound `c1ccc2c(c1)cc1ccc3cccc4ccc2c1c34` [benzo(a)pyrene], the “TOXICITIES CV” value in series [2] is “+”. For the compound `N.N.O=C([O-])C1(C(=O)[O-])CCC1.[Pt+2]` [carboplatin], in series [3], the “TOXICITIES GI” value was “+”. As for `CCOC(=O)C(C)(C)Oc1ccc(Cl)cc1` [clofibrate], the “TOXICITIES LIVER” value in series [1] (setting [5]) is “ntc”. As for `N=C(N)NCCCCCCC(=O)NC(O)C(=O)NCCCCNCCCN` (stereo not drawn) [deoxyspergualin], in series [2], the “TOXICITIES CV” value is “+”. In the case of `CCC(=O)O[C@H]1[C@H](O[C@@H]2[C@@H](C)[C@H](O[C@H]3C[C@@](C)(OC)[C@@H](O)[C@H](C)O3)[C@@H](C)C(=O)O[C@H](CC)[C@@](C)(O)[C@H](O)[C@@H](C)C(=O)[C@H](C)C[C@@]2(C)O)O[C@H](C)C[C@@H]1N(C)C` [erythromycin estolate], the “liver toxicity (in words)” value in series [1] is “known liver toxicity”. Consider `COc1nc(C(Cl)(Cl)Cl)c(Cl)c(OC)c1Cl` [penclomedine], for which, in series [4], the “TOXICITIES CNS” value is “+”. Consider `CN(CCOc1ccc(CC2SC(=O)NC2=O)cc1)c1ccccn1` (stereo not drawn) [rosiglitazone], for which the “TOXICITIES LIVER” value in series [1] (setting [5]) is reported as “ntc”. Take `Cc1c(C)c2c(c(C)c1O)CCC(C)(COc1ccc(CC3SC(=O)NC3=O)cc1)O2` (stereo not drawn) [troglitazone]: the “liver toxicity (in words)” value in series [1] is reported as “rare but severe liver toxicity”.
